These results are taken from article PMC11162475, “Rule-based omics mining reveals antimicrobial macrocyclic peptides against drug-resistant clinical isolates” (Nature Communications, 2024).

Molecules are shown by their SMILES. ≈ marks a conversion by molar mass, not a printed value.

What all share (type): cell-based
One series has as its system Bacillus subtilis 168. Kind of series: microbe, parasite or virus in culture. As to conditions: 168, 20 h. Here is the method:
(§1) For MIC determination, Staphylococcus aureus ATCC25923, Bacillus subtilis 168, Micrococcus luteus DSM1790, Enterococcus faecalis OG1RF, Enterococcus faecium MCC2763, Escherichia coli DH5α and Pseudomonas aeruginosa PAO1 were used as indicator strains. Nisin and vancomycin were used as positive controls. A dilution series of massatide A, massatide B, vancomycin (16, 8, 4, 2, 1, 0.5, 0.25, 0.125, 0.0625, 0.0313 μg/mL) and sistertide A1, kebanetide A1, kebanetide A2, nisin (64, 32, 16, 8, 4, 2, 1, 0.5, 0.25, 0.125 μg/mL) were prepared in 96-well plate from 1–10th column. The indicator strains were added to the compound-containing well. The indicator strain culture with no antibiotics was prepared in the 11th column. The 12th column was filled with 200 μL empty MHB medium. The 96-well plate was incubated at 37 °C for 20 h (30 °C for M. luteus and B. subtilis). The OD600 was detected on MULTISKAN Sky (Thermo Scientific) and MIC values were determined. The MIC values of clinical isolates were determined by Sichuan Primed Shines Bio-tech Co., Ltd. (China) following similar protocol. Levofloxacin was used as a positive control.

The test system of series [1] is Enterococcus faecalis OG1RF. Description: microbe, parasite or virus in culture. As to conditions: OG1RF, 20 h. Here is the method:
as §1

In series [2] the test system is Enterococcus faecium MCC2763. Kind of series: microbe, parasite or virus in culture. As to conditions: MCC2763, 20 h. Here is the method: as §1
The test system of series [3] is Micrococcus luteus DSM1790. Description: microbe, parasite or virus in culture. As to conditions: DSM1790, 20 h. Here is the method:
as §1

Series [4] relates to Staphylococcus aureus ATCC25923. Kind of series: microbe, parasite or virus in culture. As to conditions: ATCC25923, 20 h. Here is the method: as §1
Series [5] deals with Micrococcus luteus DSM1790. Kind of series: Kirby-Bauer assay, zone of inhibition (agar well). As to conditions: M. luteus DSM1790; 10 μL DMSO stock (3.2 or 1.6 mg/mL) in well of soft LB agar, 30 °C, 20 h. Here is the method:
(§2) The stock solution of massatide A (1) and B (1a) 3.2 mg/mL were prepared in DMSO. 40 μL overnight culture of Micrococcus luteus DSM1790 was added to 20 mL soft Luria-Bertani agar (1% agar), and then poured into a plate. 10 μL tip was used to make two wells on the plate. 10 μL massatide A (1) or B (1a) solution was added in one of the wells, while in the other well, 10 μL DMSO was added as a negative control. The plates were incubated at 30 °C for 20 h to observe the zone of inhibition. Staphylococcus aureus ATCC25923 was also used to observe the inhibition zone using a similar method. The only difference is incubating at 37 °C. Stock solutions of sistertide A1, kebanetide A1 and A2 were 3.2 mg/mL, 1.6 mg/mL and 1.6 mg/mL, respectively. The method to observe the activity of these compounds individually was the same as that of massatide.

In series [6] the test system is Staphylococcus aureus ATCC25923. Description: Kirby-Bauer assay, zone of inhibition (agar well). As to conditions: S. aureus ATCC25923; 10 μL of 3.2 mg/mL DMSO stock in well of soft LB agar, 37 °C, 20 h. Here is the method:
as §2

Series [7] can be described thus: Mammalian cytotoxicity, CCK-8 assay. As to conditions: human. Here is the method:
(§3) Bioactivity assay of the crude extract
(§4) Protease stability of massatide A
(§5) Thermal stability of massatide A […]
(§6) and 1% penicillin -streptomycin. […]
(§7) and CO 2-controllable incubator with 5% CO 2. All the cell experiments were performed […]
(§8) Cell viability was determined by the CCK -8 assay. HeLa and Hek -293T cells were […]
(§9) µg/ml. At the end of the fixed incubation period (24 h), cells were washed with PBS to remove excess compound. We added 100 µl fresh medium and 10 µl CCK-8 reagent.
(§10) After 2 h incubation at 37°C, absorbance at 450 nm was recorded using a microplate reader. All experiments were performed in triplicate (n=3 independent experiments).
(§11) Growth kinetics of S. aureus
(§12) Massatide A or B was prepared in a 96-well plate at the concentration of 8×MIC, 4×MIC, 2×MIC, 1×MIC and 0.5×MIC , respectively. The MHB medium with no compound was used as a control. Then, the overnight culture of S. aureus ATCC 25923 cells was added to the medium at 1:1,000. The plate was incubated with shaking in SpectraMax iD3 (MOLECULAR DEVICES) at 30 ℃. OD600 was measured every 30 min for 36 hours. To analyze the lysis, 1mL of S. aureus ATCC 25923 culture (OD600 1.0) was treated with massatide A or vancomycin (10×MIC) for 24h. An untreated sample was used as a negative control.
(§13) Time-dependent killing assay
(§14) An overnight culture of S. aureus ATCC 25923 cells was diluted at 1:10,000 in MHB medium and incubated at 37 ℃, 200 rpm for 2 hours to reach the early exponential.
(§15) Then, massatide A or vancomycin was added to the culture at the concentration of 10×MIC. Bacteria were still cultivated at 37 ℃, 200 rpm. Culture with no antibiotics was used as a negative control. 10 μL aliquots were removed at intervals, centrifuged, and resuspended in 1 ml PBS. Serially diluted (10-fold) suspensions were plated on MHB agar and incubated at 37 ℃ overnight for counting of colony-forming units.
(§16) Experiments were performed in triplicate.
(§17) Sequential culturing of S. aureus ATCC 25923 was performed in the presence of a subinhibitory concentration of massatide A to observe whether the resistance developed. […]

The test system of the next series is HeLa cells. Kind of series: Mammalian cytotoxicity, CCK-8 assay. Here is the method: as §3, §4, §5, §6, §7, §8, §9, §10, §11, §12, §13, §14, §15, §16, §17
In a further series the test system is Escherichia coli DH5α. As to conditions: DH5α, 20 h. Here is the method:
as §1

The subject of series [8] is Pseudomonas aeruginosa PAO1. As to conditions: PAO1, 20 h. Here is the method:
as §1

Consider `C/C=C1\NC(=O)C(N(C)C)C(C)SC[C@@H](C(=O)N/C(=C\C)C(=O)N[C@H](C(=O)N[C@@H](C)C(=O)N[C@H](C)C(=O)N[C@@H](Cc2ccccc2)C(=O)N[C@@H](C)C(=O)NC2C(=O)NCC(=O)N[C@@H](Cc3ccc(O)cc3)C(=O)N[C@@H](Cc3ccccc3)C(=O)N[C@H](C)C(=O)N/C=C\SC2C)C(C)C)NC(=O)[C@@H]2CCCN2C(=O)[C@H](C(C)C)NC1=O` (some centres unmarked) [Massatide B (1a), massatide B], for which the MIC with Bacillus subtilis 168 is 4 µg/mL (≈ 2.45 µM); in series [1] it was 4 µg/mL (≈ 2.45 µM); in series [2] it was 4 µg/mL (≈ 2.45 µM); in series [3], 0.25 µg/mL (≈ 0.153 µM); in series [4], 1 µg/mL (≈ 0.612 µM); in the series with Escherichia coli DH5α it was above 64 µg/mL. The molecule also registered an MIC in series [8] above 64 µg/mL. In addition, the “inhibitory activity (zone of inhibition)” value in [5] and in series [6] was “strong inhibitory activity” in each case. In [7], this molecule registered a concentration for half-maximal inhibition (IC50) at 24 h above 200 µg/mL. In addition, the “cytotoxicity against Hela cells” value in the series with HeLa cells is on record as “did not exhibit any significant cytotoxicity”.
